# Target: T1, rASCT2 (Rattus norvegicus, UniProt D3ZJ25)
# T1 construct: expressed in transfected cells; host or cells: HEK293 (ATCC CRL-11268), transient transfection
# T1 sequence (D3ZJ25 1-555): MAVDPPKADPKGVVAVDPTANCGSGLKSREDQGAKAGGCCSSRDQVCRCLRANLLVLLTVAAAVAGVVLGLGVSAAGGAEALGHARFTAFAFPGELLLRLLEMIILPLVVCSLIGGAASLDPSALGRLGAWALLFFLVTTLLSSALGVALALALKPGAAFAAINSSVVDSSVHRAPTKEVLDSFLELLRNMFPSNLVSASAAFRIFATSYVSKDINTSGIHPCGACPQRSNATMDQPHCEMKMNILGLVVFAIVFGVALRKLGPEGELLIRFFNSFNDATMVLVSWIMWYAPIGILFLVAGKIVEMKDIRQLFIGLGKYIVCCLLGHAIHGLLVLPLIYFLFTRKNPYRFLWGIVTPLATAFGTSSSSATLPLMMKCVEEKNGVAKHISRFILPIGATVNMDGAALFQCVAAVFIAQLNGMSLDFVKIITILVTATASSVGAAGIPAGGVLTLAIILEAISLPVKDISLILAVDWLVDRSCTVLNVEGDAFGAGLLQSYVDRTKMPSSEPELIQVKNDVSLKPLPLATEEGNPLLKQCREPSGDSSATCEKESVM
# Test: Inhibitor dissociation kinetics by ligand displacement with alanine (rapid solution exchange)
# Type: cell-based
# Procedure: Fig. 2. […] (A) Electrophysiological recordings obtained after application of alanine (red trace) and increasing concentrations of Lc-BPE (black traces). The times of application of alanine or Lc-BPE are shown by a gray bar (top). (B and C) Lc-BPE inhibitor dose–response relationships for rASCT2 and hASCT2, respectively. […] Currents were normalized to the current recorded after application of 10 µM inhibitor concentration. (D) Inhibition of glutamine uptake (5 µM external concentration) in the presence of varying concentration of Lc-BPE and 5 µM glutamine measured in proteoliposomes reconstituted with purified hASCT2. […] Errors bars represent SEM from at least two biologically independent measurements. (E) Current recorded after rapid solution exchange from extracellular buffer (control, gray bar, black trace) to a solution containing buffer + 5 mM alanine (white bar). For the red trace, the cell was preincubated with 10 µM Lc-BPE (red bar, red trace) followed by rapid application of 5 mM alanine. All current recordings were performed at 0 mV in the presence of 130 mM NaSCN internal and 140 mM NaCl external (homoexchange) solutions. […]
# To test this, we measured the dissociation kinetics of Lc-BPE using a ligand displacement approach. First, rASCT2-expressing cells were preincubated with a saturating solution of Lc-BPE (10 µM), and subsequently the inhibitor was displaced using a supersaturating concentration of the substrate L-alanine (5 mM) (Fig. 2 E and F).
# [1] = preincubation with 10 µM inhibitor, displaced with 5 mM alanine
compound,measurement,setting,value
"O=C(O[C@@H]1CN[C@H](C(=O)O)C1)c1ccc(-c2ccccc2)cc1 [Lc-BPE, L-cis hydroxyproline biphenyl ester]",slowing of activation of the anion current by alanine after preincubation,"10 µM inhibitor preincubation, 5 mM alanine",more than sixfold
same,"rate constant kobs, mean (single-exponential fit)","preapplied 10 µM inhibitor followed by 5 mM alanine, 0 mV",4.9 ± 0.2 s⁻¹
same,rate constant for dissociation,[1],2.16 s⁻¹
same,residence time in the rASCT2 binding site,[1],~500 ms

# From paper PMC8449414, “Rational design of ASCT2 inhibitors using an integrated experimental-computational approach” (Proceedings of the National Academy of Sciences of the …, 2021)
